Experimental findings from patent US20260297083A1, “SUBSTITUTED ACETYLENE COMPOUND DERIVATIVES AND THEIR PHARMACEUTICAL USE” (AVELOS THERAPEUTICS INC., priority 2023, published 2026) are described below.

The target of this experiment is T1, Polθ polymerase domain (amino acids 1792-2590) (Homo sapiens, UniProt O75417).
T1 construct: 10×Histidine-SUMO (N, cleaved yes); made in house; host or cells: E. coli
T1 sequence (O75417 1792-2590): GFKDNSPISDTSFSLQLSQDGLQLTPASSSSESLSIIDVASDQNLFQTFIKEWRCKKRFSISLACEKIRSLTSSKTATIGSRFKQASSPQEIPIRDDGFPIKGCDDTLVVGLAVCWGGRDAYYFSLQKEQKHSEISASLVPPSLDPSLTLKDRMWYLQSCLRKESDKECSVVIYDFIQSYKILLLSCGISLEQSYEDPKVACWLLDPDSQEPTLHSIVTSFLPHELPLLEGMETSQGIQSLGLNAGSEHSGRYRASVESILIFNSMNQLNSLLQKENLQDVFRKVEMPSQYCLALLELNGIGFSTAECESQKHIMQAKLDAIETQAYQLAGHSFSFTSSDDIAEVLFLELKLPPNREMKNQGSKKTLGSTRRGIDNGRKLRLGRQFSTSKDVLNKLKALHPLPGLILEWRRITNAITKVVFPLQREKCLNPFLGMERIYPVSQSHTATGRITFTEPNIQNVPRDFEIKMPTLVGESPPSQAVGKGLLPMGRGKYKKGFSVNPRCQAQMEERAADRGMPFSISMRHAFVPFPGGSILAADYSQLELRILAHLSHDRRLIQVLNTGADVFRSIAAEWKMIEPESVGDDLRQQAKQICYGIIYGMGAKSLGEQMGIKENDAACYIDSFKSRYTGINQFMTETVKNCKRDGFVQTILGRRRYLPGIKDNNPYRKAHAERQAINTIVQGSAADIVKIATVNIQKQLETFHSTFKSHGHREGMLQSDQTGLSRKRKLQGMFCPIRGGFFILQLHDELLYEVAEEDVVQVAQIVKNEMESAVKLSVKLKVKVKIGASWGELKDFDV
Put plainly: Picogreen assay of Polθ polymerase activity. It is filed as biochemical. The conditions noted are these: 12-point concentration response, 90 minutes incubation at room temperature, 8 nM Polθ in 2×polymerase mixture, read-out: PolQ IC50. The text has this: The DNA sequence of the polQ gene (Genebank ID #NM 199420.4) was chemically synthesized. The DNA sequence encoding the polymerase domain (amino acids 1792-2590) was subcloned into an E. coli expression plasmid, resulting in the fusion of 10×Histidine-SUMO tag at the N terminus of the polymerase domain.
The protein was expressed in E. coli. and purified using a 2-step IMAC (immobilized metal chelate affinity chromatography) procedure. Briefly stated, the overexpressed E. coli lysate was subjected to Ni-NTA purification, and an N-terminal tag was digested by a SUMO protease. Then, the excised fragment of 10×Histidine-SUMO tag was removed using Ni-NTA beads. The resulting protein was used for the Picogreen assay, as described below.
The methods of DNA complex preparation were slightly modified from the protocol previously reported (Zatreanu et al., 2021, Nature Communications, 12:3636). Briefly stated, polθ substrate was prepared by mixing Oligo1 (5′-GCG GCT GTC ATA AG-3′) and Oligo2 (5′-GCTACATTGACAATGGCATCAAATCTCAGATTGCGTCTTATGACAGCCGCG-3′) in an annealing buffer (20 mM Tris-Cl, pH 7.5, 50 mM NaCl) to the final concentration of 22 uM and 20 uM, respectively. The Polθ product was prepared by mixing Oligo3 (5′-CGCGGCTGTCATAAGACGCAATCTGAGATTTGATGCCATTGTCAATGTAGC-3′) and Oligo2 (5′-GCTACATTGACAATGGCATCAAATCTCAGATTGCGTCTTATGACAGCCGCG-3′) to the final concentration of 20 uM. The polθ product was used for the top signal control in the Picogreen assay. Both substrate and product were heated to 95° C. […] and cooled slowly to room temperature.
To evaluate the ability of test compounds to inhibit the activity of polθ in vitro, a Picogreen assay was performed to measure polθ IC50 (nM).
The reactions were performed at room temperature in an assay buffer (25 mM Tris-HCl, pH 7.5, 12.5 mM NaCl, 0.5 mM MgCl2, 5% (v/v) glycerol, 0.01% (v/v) Triton X-100, 0.01% (w/v) Bovine serum albumin, 1 mM DTT). Thirty microliters of 2×polymerase mixture (8 nM Polθ enzyme in an assay buffer) were distributed to 96 well plates, test compounds were prepared by dilution in 100% DMSO to obtain the correct dose range for a 12-point concentration response and 1 μl was dispensed into each well, and then 30 microliters of 2×substrate mix (100 nM DNA and 40 uM dNTPs in an assay buffer) was added. After 90 minutes of incubation, the reaction was stopped and DNA was stained by adding 40 microliters of Picogreen solution (1:80 dilution of Picogreen, Invitrogen, Cat #P7581, 25 mM Tris-HCl, pH 7.5, 10 mM EDTA, pH 7.5).
The fluorescence intensity was measured at excitation/emission=485 nm/520 nm using an Ensight plate reader (Perkin Elmer). The data was analyzed by GraphPad Prism software (Version 8.4.3) to calculate IC50.
A word on the IC50: it is the midpoint of a concentration-inhibition curve. Take `Cc1cc(C(F)(F)F)cc(N2[C@H](C(=O)N(CC#Cc3cnc(C(N)=O)cn3)c3ccc(F)c(C)c3)CCS2(=O)=O)n1` [compound 61]: the 50% inhibitory concentration (IC50) is over 101 nM.

Turning to `Cc1cc(C(F)(F)F)cc(N2[C@H](C(=O)N(CC#Cc3cnc(C(N)=O)c(C)n3)c3ccc(F)c(C)c3)CCS2(=O)=O)n1` [compound 62], the half-inhibitory concentration (IC50) was in the range of 1 to 50 nM.

In the case of `Cc1cc(C(F)(F)F)cc(N2[C@H](C(=O)N(CC#Cc3cncc(C(N)=O)n3)c3ccc(F)c(C)c3)CCS2(=O)=O)n1` [compound 63], the IC50 lay within 1 to 50 nM.

`Cc1cc(C(F)(F)F)cc(N2[C@H](C(=O)N(CC#Cc3nccnc3C(N)=O)c3ccc(F)c(C)c3)CCS2(=O)=O)n1` [compound 64]: the IC50 was in the range of 1 to 50 nM.

As for `Cc1cc(C(F)(F)F)cc(N2[C@H](C(=O)N(CC#Cc3cnc(S(N)(=O)=O)cn3)c3ccc(F)c(C)c3)CCS2(=O)=O)n1` [compound 65], the IC50 is over 101 nM.

With `Cc1cc(C(F)(F)F)cc(N2[C@H](C(=O)N(CC#Cc3cncc(S(N)(=O)=O)n3)c3ccc(F)c(C)c3)CCS2(=O)=O)n1` [compound 66], the IC50 was in the range of 51 to 100 nM.

Turning to `CNC(=O)c1cnc(C#CCN(C(=O)[C@@H]2CCS(=O)(=O)N2c2cc(C(F)(F)F)cc(C)n2)c2ccc(F)c(C)c2)cn1` [compound 67], the IC50 fell in the range of 1 to 50 nM.

Regarding `Cc1cc(C(F)(F)F)cc(N2[C@H](C(=O)N(CC#Cc3cnc(C(=O)N(C)C)cn3)c3ccc(F)c(C)c3)CCS2(=O)=O)n1` [compound 68], the IC50 fell in the range of 1 to 50 nM.

For the compound `Cc1cc(C(F)(F)F)cc(N2[C@H](C(=O)N(CC#Cc3cnc(C(=O)N4CCOCC4)cn3)c3ccc(F)c(C)c3)CCS2(=O)=O)n1` [compound 69], the IC50 is 1 to 50 nM.

As for `Cc1cc(C(F)(F)F)cc(N2[C@H](C(=O)N(CC#Cc3cncc(C(=O)N4CCOCC4)n3)c3ccc(F)c(C)c3)CCS2(=O)=O)n1` [compound 70], the half-inhibitory concentration (IC50) fell in the range of 1 to 50 nM.

In the case of `Cc1cc(C(F)(F)F)cc(N2[C@H](C(=O)N(CC#Cc3cncc(C(=O)N4CC5CCC(C4)O5)n3)c3ccc(F)c(C)c3)CCS2(=O)=O)n1` [compound 71], the IC50 fell in the range of 1 to 50 nM.

Take `Cc1cc(C(F)(F)F)cc(N2[C@H](C(=O)N(CC#Cc3cncc(C(=O)N4CCNCC4)n3)c3ccc(F)c(C)c3)CCS2(=O)=O)n1` [compound 72]: the IC50 fell in the range of 1 to 50 nM.

Turning to `Cc1cc(C(F)(F)F)cc(N2[C@H](C(=O)N(CC#Cc3cncc(C(=O)N4CC5CCC(C4)N5)n3)c3ccc(F)c(C)c3)CCS2(=O)=O)n1` [compound 73], the IC50 was in the range of 1 to 50 nM.

In the case of `Cc1cc(C(F)(F)F)cc(N2[C@H](C(=O)N(CC#Cc3cncc(C(=O)N4C[C@H](C)N[C@@H](C)C4)n3)c3ccc(F)c(C)c3)CCS2(=O)=O)n1` [compound 74], the IC50 was over 101 nM.

For the compound `Cc1cc(C(F)(F)F)cc(N2[C@H](C(=O)N(CC#Cc3cc(N4CCOCC4)ncn3)c3ccc(F)c(C)c3)CCS2(=O)=O)n1` [compound 75], the half-maximal inhibitory concentration (IC50) was 1 to 50 nM.

As for `Cc1cc(C(F)(F)F)cc(N2[C@H](C(=O)N(CC#Cc3cc(N4CCOCC4)nc(C(F)(F)F)n3)c3ccc(F)c(C)c3)CCS2(=O)=O)n1` [compound 76], the IC50 was 51 to 100 nM.

For `Cc1cc(C(F)(F)F)cc(N2[C@H](C(=O)N(CC#Cc3cnc(N4CCOCC4)nc3)c3ccc(F)c(C)c3)CCS2(=O)=O)n1` [compound 77], the IC50 lay in the range of 1 to 50 nM.

Regarding `Cc1cc(C(F)(F)F)cc(N2[C@H](C(=O)N(CC#Cc3cnc(C(N)=O)nc3)c3ccc(F)c(C)c3)CCS2(=O)=O)n1` [compound 78], the IC50 lay in the range of 1 to 50 nM.

As to `Cc1cc(C(F)(F)F)cc(N2[C@H](C(=O)N(CC#Cc3ncc(N4CCOCC4)cn3)c3ccc(F)c(C)c3)CCS2(=O)=O)n1` [compound 79], the IC50 lay in the range of 1 to 50 nM.

As to `Cc1cc(C(F)(F)F)cc(N2[C@H](C(=O)N(CC#Cc3nccc(N4CCOCC4)n3)c3ccc(F)c(C)c3)CCS2(=O)=O)n1` [compound 80], the 50% inhibitory concentration (IC50) fell in the range of 1 to 50 nM.

As for `Cc1cc(C(F)(F)F)cc(N2[C@H](C(=O)N(CC#Cc3ncc(C(N)=O)cn3)c3ccc(F)c(C)c3)CCS2(=O)=O)n1` [compound 81], the IC50 was over 101 nM.

On to `Cc1cc(C(F)(F)F)cc(N2[C@H](C(=O)N(CC#Cc3ncc(C(=O)N4CCOCC4)cn3)c3ccc(F)c(C)c3)CCS2(=O)=O)n1` [compound 82], for which the concentration for half-maximal inhibition (IC50) is 51 to 100 nM.

For `Cc1cc(C(F)(F)F)cc(N2[C@H](C(=O)N(CC#Cc3ncc(C(=O)N4C5CCC4COC5)cn3)c3ccc(F)c(C)c3)CCS2(=O)=O)n1` [compound 83], the IC50 is 1 to 50 nM.

Turning to `Cc1cc(C(F)(F)F)cc(N2[C@H](C(=O)N(CC#Cc3ccc(N4CCOCC4)cn3)c3ccc(F)c(C)c3)CCS2(=O)=O)n1` [compound 84], the IC50 was 1 to 50 nM.

For the compound `Cc1cc(C(F)(F)F)cc(N2[C@H](C(=O)N(CC#Cc3ccc(N4CCOCC4)nc3)c3ccc(F)c(C)c3)CCS2(=O)=O)n1` [compound 85], the IC50 fell in the range of 1 to 50 nM.

For the compound `Cc1cc(C(F)(F)F)cc(N2[C@H](C(=O)N(CC#Cc3cccc(N4CCOCC4)n3)c3ccc(F)c(C)c3)CCS2(=O)=O)n1` [compound 86], the IC50 lay within 1 to 50 nM.

Take `Cc1cc(C(F)(F)F)cc(N2[C@H](C(=O)N(CC#Cc3cccc(=O)[nH]3)c3ccc(F)c(C)c3)CCS2(=O)=O)n1` [compound 87]: the IC50 fell in the range of 51 to 100 nM.

With `Cc1cc(C(F)(F)F)cc(N2[C@H](C(=O)N(CC#Cc3cccc(OC(C)C)n3)c3ccc(F)c(C)c3)CCS2(=O)=O)n1` [compound 88], the half-maximal inhibitory concentration (IC50) was over 101 nM.

Take `Cc1cc(C(F)(F)F)cc(N2[C@H](C(=O)N(CC#Cc3cccc(OC(F)F)n3)c3ccc(F)c(C)c3)CCS2(=O)=O)n1` [compound 89]: the half-inhibitory concentration (IC50) lay within 51 to 100 nM.

Take `Cc1cc(C(F)(F)F)cc(N2[C@H](C(=O)N(CC#Cc3cc(C)c(F)c(C)n3)c3ccc(F)c(C)c3)CCS2(=O)=O)n1` [compound 90]: the IC50 was 51 to 100 nM.

Consider `Cc1cc(C(F)(F)F)cc(N2[C@H](C(=O)N(CC#Cc3cc(C)c(N)c(C)n3)c3ccc(F)c(C)c3)CCS2(=O)=O)n1` [compound 91], for which the IC50 lay in the range of 1 to 50 nM.

Consider `Cc1cc(C(F)(F)F)cc(N2[C@H](C(=O)N(CC#Cc3cccc(=O)n3C)c3ccc(F)c(C)c3)CCS2(=O)=O)n1` [compound 92], for which the IC50 was 1 to 50 nM.

As for `Cc1cc(C(F)(F)F)cc(N2[C@H](C(=O)N(CC#Cc3ccc(F)cn3)c3ccc(F)c(C)c3)CCS2(=O)=O)n1` [compound 93], the IC50 lay in the range of 1 to 50 nM.

As to `Cc1cc(C(F)(F)F)cc(N2[C@H](C(=O)N(CC#Cc3ccc(F)c(C(C)C)n3)c3ccc(F)c(C)c3)CCS2(=O)=O)n1` [compound 94], the IC50 was in the range of 51 to 100 nM.

For the compound `Cc1cc(C(F)(F)F)cc(N2[C@H](C(=O)N(CC#Cc3ccc(C(N)=O)nc3)c3ccc(F)c(C)c3)CCS2(=O)=O)n1` [compound 95], the IC50 lay within 1 to 50 nM.

Turning to `Cc1cc(C(F)(F)F)cc(N2[C@H](C(=O)N(CC#Cc3cnc(C(N)=O)c(F)c3)c3ccc(F)c(C)c3)CCS2(=O)=O)n1` [compound 96], the IC50 is 1 to 50 nM.
